In patent publication US8697877B2, “Oxyindole derivatives with motilin receptor agonistic activity” (RaQualia Pharma Inc., priority 2009, dated 2014) one finds EC50 data, which are given here for 20 compounds.

pEC50: −log10 of the molar value.

In one test the target is T1, human motilin receptor (GPR38) (Homo sapiens, UniProt O43193).
T1 construct: expressed in transfected cells; host or cells: CHO-K1
T1 sequence (O43193 whole entry): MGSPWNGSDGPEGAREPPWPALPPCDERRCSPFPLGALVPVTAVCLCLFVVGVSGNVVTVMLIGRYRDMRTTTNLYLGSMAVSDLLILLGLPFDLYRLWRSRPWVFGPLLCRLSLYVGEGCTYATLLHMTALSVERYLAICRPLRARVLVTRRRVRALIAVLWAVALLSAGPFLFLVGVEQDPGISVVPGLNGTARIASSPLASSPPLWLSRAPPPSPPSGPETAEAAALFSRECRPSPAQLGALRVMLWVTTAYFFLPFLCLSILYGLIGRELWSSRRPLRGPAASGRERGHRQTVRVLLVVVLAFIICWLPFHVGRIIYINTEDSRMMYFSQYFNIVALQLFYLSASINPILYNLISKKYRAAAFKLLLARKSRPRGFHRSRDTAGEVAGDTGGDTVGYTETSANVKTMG
The test can be described thus: GPR38 (Motilin Receptor) Functional Assay, NFAT-beta-lactamase reporter in CHO-K1 cells. In kind it is cell-based.
Conditions: not given
The procedure: The potencies and efficacies of the compounds of this invention for GPR38 can be determined by reporter assay performed on the human cloned receptor as described herein.
GPR38 (Motilin Receptor) Functional Assay
A CHO-K1 cell line stably transfected NFAT-beta-lactamase reporter and human motilin receptor gene was used. The cells were cultured in culture medium (Dulbecco's modified eagle medium containing 10% fetal bovine serum, 1 mM sodium pyruvate, 0.1 mM MEM nonessential amino acids, 25 mM HEPES buffer, 50 units/mL penicillin, 50 microg/mL streptomycin, 100 microg/mL zeocin, and 500 microg/mL G418). The cells were harvested with 0.05% trypsin EDTA and centrifuged. The cell pellets were resuspended in the culture medium and plated into a black/clear bottom 384-well plate at a density of 8000 cells per well, then incubated at 37° C. with 5% CO2 for over night (about 20 hours). On the day of assay, the culture medium was aspirated and 20 microL of assay medium (Dulbecco's modified eagle medium containing 100 units/mL penicillin and 100 microg/mL streptomycin) was added to each well, then the cell plates were placed in incubator at 37° C. with 5% CO2 for 1.5 hours. Compounds were prepared in 100% DMSO and these were diluted to 5× of final concentration with assay buffer (Hanks balanced salt solution, 20 mM HEPES, and 0.1% BSA), then dispensed into 384-well plate (5 microL/well). After incubation at 37° C. with 5% CO2 for 4.5 hours, CCF4-AM loading solution (Invitrogen Corp.) was added to each well. After incubation for 2 hours at room temperature, fluorescence intensities were measured by using plate reader FDSS (Hamamatsu Photonics K. K.) with excitation 400 nm, emission 465 nm/540 nm. Agonistic activity (EC50) was calculated from the sigmoidal dose-response curve using GraphPad Prism software (GraphPad Software, Inc.).
Usually pEC50 stands for the negative decadic logarithm of the EC50, by convention in mol/L. For `CC1(C)C(=O)N(C2CCN(C(=O)[C@H](CCc3ccccc3)NC(=O)NC[C@@H]3CCCN3)CC2)c2ccccc21` [Example 48, 1-((S)-1-(4-(3,3-dimethyl-2-oxo-indolin-1-yl)piperidin-1-yl)-1-oxo-4-phenylbutan-2-yl)-3-((S)-pyrrolidin-2-ylmethyl)urea], the pEC50 was no less than 8.00. Same read-out and setting: the same measure for `CN(C)[C@H]1CCN(C(=O)N[C@@H](CCc2ccccc2)C(=O)N2CCC(N3C(=O)C(C)(C)c4ccccc43)CC2)C1` [Example 67, (S)—N—((S)-1-(4-(3,3-dimethyl-2-oxoindolin-1-yl)piperidin-1-yl)-1-oxo-4-phenylbutan-2-yl)-3-(dimethylamino)pyrrolidine-1-carboxamide]: no less than 8.00; for `CC1(C)C(=O)N(C2CCN(C(=O)[C@H](CCc3ccccc3)NC(=O)NC[C@@H]3CCCN3)CC2)c2ccc(F)cc21` [Example 71, 1-((S)-1-(4-(5-fluoro-3,3-dimethyl-2-oxoindolin-1-yl)piperldin-1-yl)-1-oxo-4-phenylbutan-2-yl)-3-((S)-pyrrolidin-2-ylmethyl)urea]: no less than 8.00; for `CNC(C)(C)CC(=O)N[C@@H](CCc1ccccc1)C(=O)N1CCC(N2C(=O)C(C)(C)c3cc(F)ccc32)CC1` [Example 46, (S)-N-(1-(4-(5-fluoro-3,3-dimethyl-2-oxoindolin-1-yl)piperidin-1-yl)-1-oxo-4-phenylbutan-2-yl)-3-methyl-3-(methylamino)butanamide]: no less than 8.00.

Compound `CC1(C)C(=O)N(C2CCN(C(=O)[C@H](CCc3ccccc3)NC(=O)CN3CCCC3)CC2)c2ccccc21` [Example 17, (S)—N-(1-(4-(3,3-dimethyl-2-oxoindolin-1-yl)piperidin-1-yl)-1-oxo-4-phenylbutan-2-yl)-2-(pyrrolidin-1-yl)acetamide] showed a pEC50 of no less than 8.00.

For `CC1(C)C(=O)N(C2CCN(C(=O)[C@H](CCc3ccccc3)NC(=O)[C@@H](N)C(C)(C)C)CC2)c2ccccc21` [Example 3, (S)-2-amino-N-((S)-1-(4-(3,3-dimethyl-2-oxoindolin-1-yl)piperidin-1-yl)-1-oxo-4-phenylbutan-2-yl)-3,3-dimethylbutanamide], the pEC50 was no less than 8.00.

In turn, `CC1(C)C(=O)N(C2CCN(C(=O)[C@H](Cc3ccc(Cl)cc3)NC(=O)[C@@H]3CCCNC3)CC2)c2ccccc21` [Example 87, (R)-N-((S)-3-(4-chloro-phenyl)-1-(4-(3,3-dimethyl-2-oxoindolin-1-yl)piperidin-1-yl)-1-oxopropan-2-yl)piperidine-3-carboxamide] gave a pEC50 of no less than 8.00. The same measure, in the same setting: the same measure for `CC1(C)C(=O)N(C2CCN(C(=O)[C@H](Cc3ccccc3C(F)(F)F)NC(=O)C3CCNCC3)CC2)c2ccccc21` [Example 78, (S)-N-(1-(4-(3,3-dimethyl-2-oxoindolin-1-yl)piperidin-1-yl)-1-oxo-3-(2-(trifluoro-methyl)phenyl)propan-2-yl)piperidine-4-carboxamide]: no less than 8.00.

The compound `CC1(C)C(=O)N(C2CCN(C(=O)[C@H](CCc3ccccc3)NC(=O)[C@@H]3CCCNC3)CC2)c2ccccc21` [Example 1, (R)—N—((S)-1-(4-(3,3-dimethyl-2-oxoindolin-1-yl)piperidin-1-yl)-1-oxo-4-phenylbutan-2-yl)piperidine-3-carboxamide] gave a pEC50 of no less than 8.00. Still for that read-out and setting: then `CN[C@@H]1CC[C@H](C(=O)N[C@@H](Cc2c[nH]c3ccccc23)C(=O)N2CCC(N3C(=O)C(C)(C)c4ccccc43)CC2)C1` [Example 34, (1S,3R)-N-((S)-1-(4-(3,3-dimethyl-2-oxoindolin-1-yl)piperidin-1-yl)-3-(1H-indol-3-yl)-1-oxopropan-2-yl)-3-(methylamino)cyclopentane-carboxamide], with no less than 8.00.

Turning to `CN[C@H]1CCN(C(=O)N[C@@H](CCc2ccccc2)C(=O)N2CCC(N3C(=O)C(C)(C)c4cc(F)ccc43)CC2)C1` [Example 70, (S)—N—((S)-1-(4-(5-fluoro-3,3-dimethyl-2-oxoindolin-1-yl)piperidin-1-yl)-1-oxo-4-phenylbutan-2-yl)-3-(methylamino)pyrrolidine-1-carboxamide], the pEC50 is no less than 8.00. The same measure, in the same setting: the same measure for `CN[C@@H]1CC[C@H](C(=O)N[C@@H](Cc2ccccc2C(F)(F)F)C(=O)N2CCC(N3C(=O)C(C)(C)c4ccccc43)CC2)C1` [Example 22, (1S,3R)-N-((S)-1-(4-(3,3-dimethyl-2-oxoindolin-1-yl)piperidin-1-yl)-1-oxo-3-(2-(trifluoromethyl)phenyl)propan-2-yl)-3-(methylamino)cyclopentane-carboxamide]: no less than 8.00; for `CC1(C)C(=O)N(C2CCN(C(=O)[C@H](CCc3ccccc3)NC(=O)NC[C@@H]3CCCNC3)CC2)c2ccccc21` [Example 61, 1-((S)-1-(4-(3,3-dimethyl-2-oxo-indolin-1-yl)piperidin-1-yl)-1-oxo-4-phenylbutan-2-yl)-3-((R)-piperidin-3-ylmethyl)urea]: no less than 8.00. `CN[C@@H]1CC[C@H](C(=O)N[C@@H](Cc2cccc(Cl)c2)C(=O)N2CCC(N3C(=O)C(C)(C)c4ccccc43)CC2)C1` [Example 29, (1S,3R)-N-((S)-3-(3-chlorophenyl)-1-(4-(3,3-dimethyl-2-oxoindolin-1-yl)piperidin-1-yl)-1-oxopropan-2-yl)-3-(methylamino)cyclopentane-carboxamide] had a pEC50 of no less than 8.00. The same measure, in the same setting: the same measure for `CC1(C)C(=O)N(C2CCN(C(=O)[C@H](CCc3ccccc3)NC(=O)C3CNC3)CC2)c2ccccc21` [Example 9, (S)-N-(1-(4-(3,3-dimethyl-2-oxoindolin-1-yl)piperidin-1-yl)-1-oxo-4-phenylbutan-2-yl)azetidine-3-carboxamide]: no less than 8.00; for `CC1(C)C(=O)N(C2CCN(C(=O)[C@H](CCc3ccccc3)NC(=O)C3CCNCC3)CC2)c2ccccc21` [Example 10, (S)-N-(1-(4-(3,3-dimethyl-2-oxoindolin-1-yl)piperidin-1-yl)-1-oxo-4-phenylbutan-2-yl)piperidine-4-carboxamide]: no less than 8.00; for `CC(C)(N)CNC(=O)N[C@@H](CCc1ccccc1)C(=O)N1CCC(N2C(=O)C(C)(C)c3ccccc32)CC1` [Example 62, (S)-1-(2-amino-2-methylpropyl)-3-(1-(4-(3,3-dimethyl-2-oxoindolin-1-yl)piperidin-1-yl)-1-oxo-4-phenyl-butan-2-yl)urea]: no less than 8.00. The same measure, in the same setting: then `CC1(C)C(=O)N(C2CCN(C(=O)[C@H](CCc3ccccc3)NC(=O)NCCN3CCCC3)CC2)c2ccccc21` [Example 64, (S)-1-(1-(4-(3,3-dimethyl-2-oxo-indolin-1-yl)piperidin-1-yl)-1-oxo-4-phenylbutan-2-yl)-3-(2-(pyrrolidin-1-yl)ethyl)urea], with no less than 8.00. On the same count and under the same terms, then `CCC1(NC(=O)N[C@@H](CCc2ccccc2)C(=O)N2CCC(N3C(=O)C(C)(C)c4ccccc43)CC2)CCNCC1` [Example 55, (S)-1-(1-(4-(3,3-dimethyl-2-oxo-indolin-1-yl)piperidin-1-yl)-1-oxo-4-phenylbutan-2-yl)-3-(4-ethylpiperidin-4-yl)urea], with no less than 8.00; and `CN[C@@H]1CC[C@H](C(=O)N[C@@H](CCc2ccccc2)C(=O)N2CCC(N3C(=O)C(C)(C)c4cc(F)ccc43)CC2)C1` [Example 45, (1S,3R)-N-((S)-1-(4-(5-fluoro-3,3-dimethyl-2-oxoindolin-1-yl)piperidin-1-yl)-1-oxo-4-phenylbutan-2-yl)-3-(methylamino)cyclopentane-carboxamide], with no less than 8.00.

The same test, now with this note: ED50 (nM), Table 15; functional activity toward GPR38 (motilin receptor), (S) versus (R) amino acid linker.
The term EC50 denotes the concentration at which the effect is half-maximal. Low readings indicate a more potent agent, high ones a less potent agent. `CC1(C)C(=O)N(C2CCN(C(=O)[C@H](CCc3ccccc3)NC(=O)[C@@H]3CCCNC3)CC2)c2ccccc21` [Example 1, (R)—N—((S)-1-(4-(3,3-dimethyl-2-oxoindolin-1-yl)piperidin-1-yl)-1-oxo-4-phenylbutan-2-yl)piperidine-3-carboxamide] registered an EC50 of 0.24 nM.
